The text below walks through data of US8816079B2, “Amide derivative and use thereof as medicine” (Mitsubishi Tanabe Pharma Corporation, priority 2010, dated 2014).

One may read the IC50 as the concentration that gives 50% inhibition.

The test system of assay [1] is proMMP-9 production by human TNFα stimulated THP-1 cell. The assay can be described thus: proMMP-9 production by human TNFα stimulated THP-1 cell. Conditions: THP-1 cells, human TNFα 10 ng/mL, 24 hr; IC50 from 3 points at 10, 100 and 1,000 nmol/L; read-out: proMMP-9 production suppression (IC50). The assay is classed as cell-based. Here is the method: THP-1 cell (human monocytic leukemia cell line) was adjusted to 1×10^7 cells/mL in a culture medium (10% fetal bovine serum/RPMI1640 medium), and dispensed to a 96 well multiplate. This was equilibrated under the conditions of 37° C./5% CO2, and a culture medium containing human TNFα (final concentration 10 ng/mL) and a test compound was added thereto. After incubation under the conditions of 37° C./5% CO2 for 24 hr, the culture medium was centrifuged and the culture supernatant was collected, which was subjected to the following measurement.
Quantification of proMMP-9 in Culture Supernatant
The proMMP-9 concentration of the collected culture supernatant was quantified using a commercially available measurement reagent (manufactured by GE Healthcare, MMP-9, Human, Biotrak ELISA System).
Calculation of proMMP-9 Suppression Rate
The proMMP-9 suppression rate of the test compound was calculated from the following formula: % suppression=100−((Test−Min)/(Max−Min)×100) wherein Max is proMMP-9 concentration of culture supernatant induced by stimulation with human TNFα, without addition of a test compound (added with solvent alone) Min is proMMP-9 concentration of culture supernatant without addition of a test compound (added with solvent alone) and without stimulation with human TNFα, and Test is proMMP-9 concentration of culture supernatant induced by stimulation with human TNFα when a test compound is added.
Furthermore, the concentration of the test compound necessary for suppressing proMMP-9 production by human TNFα stimulated THP-1 cell by 50% ([…]) was calculated from 3 points of proMMP-9 suppression rate at test compound concentrations of 10, 100 and 1,000 nmol/L.

Assay [2] deals with rat monoiodoacetic acid-induced osteoarthritis model. As to the kind of experiment: articular joints injury of rat monoiodoacetic acid-induced osteoarthritis model. Conditions: LEW rat, 10 mg/kg oral once a day to day 6, scored on day 7; disease group (solvent) 5.8 ± 0.2. It is filed as in vivo. Here is the method: Monoiodoacetic acid solution (0.3 mg/25 μL) was injected into the right hindpaw knee joint cavity of anesthetized rats (LEW, male, 7-week-old). A test compound was orally administered once a day from immediately after monoiodoacetic acid injection to day 6 at a dose of 10 mg/kg. On day 7, right hindpaw knee joint was taken from euthanized rats, and fixed with 10% neutral formalin solution. A pathology specimen of knee joint was prepared, stained with Hematoxylin Eosin and Safranine O, and the state of joint cartilage injury was scored under microscopic observation. For articular joint injury scores, changes in each pathological finding in medial condyle of femur and medial condyle of tibia (cartilage surface tuberosity, erosion/ulcer/fibrillation, chondrocyte disorganization/disappearance/hypertrophy, reduction of Safranine staining) were divided into mild, moderate and severe according to the method of Kobayashi et al. (Kobayashi K et al. J. Vet. Med. Sci. 65, 1195 1199 2003), and indicated in the scores of 1, 2 and 3 and totaled. Furthermore, an average of the score of medial condyle of femur and that of medial condyle of tibia was determined and used as an articular joint injury score.

Assay [3] concerns proMMP-2 production by THP-1 cell. The assay can be described thus: hemostatic type proMMP-2 production by THP-1 cell. The assay is classed as cell-based, human. As to conditions: THP-1 cells without stimulation, 24 hr, test compound 2 μM. The procedure:
THP-1 cell (human monocytic leukemia cell line) was adjusted to 1×10^7 cells/mL in a culture medium (10% fetal bovine serum/RPMI1640 medium), and dispensed to a 96 well multiplate. This was equilibrated under the conditions of 37° C./5% CO2, and a culture medium containing a test compound was added thereto. After incubation under the conditions of 37° C./5% CO2 for 24 hr, the culture medium was centrifuged and the culture supernatant was collected, which was subjected to the following measurement.
Quantification of proMMP-2 in Culture Supernatant
The proMMP-2 concentration of the collected culture supernatant was quantified using a commercially available measurement reagent (manufactured by GE Healthcare, MMP-2, Human, Biotrak ELISA System).
Calculation of proMMP-2 Suppression Rate
The proMMP-2 suppression rate of the test compound was calculated from the following formula: % suppress=100−((Test/Cont)×100). wherein Cont is proMMP-2 concentration of culture supernatant without addition of a test compound (added with solvent alone) and Test is proMMP-2 concentration of culture supernatant with addition of a test compound.

The subject of assay [4] is rat dinitrobenzene-induced colitis model. As to the kind of experiment: large intestine weight increase of rat dinitrobenzene-induced colitis model. The assay is classed as in vivo. Conditions: Wistar rat, 10 mg/kg oral once a day, day 8; normal group 0.215 ± 0.011, pathology group 0.633 ± 0.041. Here is the method:
A dinitrobenzene solution (30 mg/0.1 mL) was injected into the large intestine of anesthetized rats (Wistar, male, 6-week-old). […] On day 8, the large intestine was isolated from euthanized rats, and the wet weight thereof was measured. The large intestine weight was amended to the weight per 100 g body weight of the rats on day 8.

In assay [5] the test system is rat adjuvant induced arthritis model. The assay can be described thus: hindpaw edema of rat adjuvant induced arthritis model. Conditions: LEW rat, 10 mg/kg oral once a day day 15 to day 20, difference of hindpaw volume day 15 to day 21; disease group (solvent) 0.63 ± 0.13. It is filed as in vivo. Here is the method: Anesthetized rats (LEW, male, 6-week-old) were immunized with M. Butyricum (5 mg/mL) at a dose of 0.1 mL/body by subcutaneous administration from the tail root. […] […] The amount of hindpaw edema was the difference in the amount between hindpaw volume on day 15 and that on day 21.

Each structure is given as a SMILES string.

Regarding `Cc1cnc(N2CCN(C(=O)c3ccc(N4CCCS4(=O)=O)cc3C)CC2)c(C)c1` [Example 154, [4-(3,5-Dimethylpyridin-2-yl)piperazin-1-yl][4-(1,1-dioxo-1λ^6-isothiazolidin-2-yl)-2-methylphenyl]methanone], the IC50 in assay [1] amounted to 0.082 µM. For the same compound, in assay [2], the “articular joint injury score of compound administration group” value stood at 4.6 ± 0.4. In assay [3], the “MMP-2 production suppression (% suppression, 2 μM)” value is reported as 13.0%.

Consider `Cc1cc(C)c(N2CCN(C(=O)c3ccc(N4C(=O)NC(=O)C4C)nc3)CC2)nc1C` (centres unmarked) [Example 549, 5-methyl-1-{5-[4-(3,5,6-trimethylpyridin-2-yl)piperazine-1-carbonyl]pyridin-2-yl}imidazolidine-2,4-dione], for which the IC50 in assay [1] is 0.007 µM. For `Cc1cnc(N2CCN(C(=O)c3ccc(N4CCNC4=O)cc3F)CC2)c(C)c1` [Example 416, 1-{4-[4-(3,5-dimethylpyridin-2-yl)piperazine-1-carbonyl]-3-fluorophenyl}imidazolidin-2-one], in assay [1], the IC50 came to 0.01 µM. Turning to `Cc1cnc(N2CCN(C(=O)c3ccc(N4CCCS4(=O)=O)cc3F)CC2)c(C)c1` [Example 130, [4-(3,5-dimethylpyridin-2-yl)piperazin-1-yl][4-(1,1-dioxo-1λ^6-isothiazolidin-2-yl)-2-fluorophenyl]methanone], in assay [1], the 50% inhibitory concentration (IC50) amounted to 0.044 µM. Also, in assay [3], the “MMP-2 production suppression (% suppression, 2 μM)” value came out at 8.0%. Consider `Cc1ccc(N2CCN(C(=O)c3ccc(N4CCCS4(=O)=O)cc3S(C)(=O)=O)CC2)c(C)c1` [Example 11, [4-(2,4-dimethylphenyl)piperazin-1-yl][4-(1,1-dioxo-1λ^6-isothiazolidin-2-yl)-2-methanesulfonylphenyl]methanone], for which the “large intestine weight (g/100 g body weight)” value in assay [4] turned out to be 0.509 ± 0.051 g/100 g body weight. The “hindpaw edema volume of compound administration group” value in assay [5] is 0.24 ± 0.10. As to `Cc1cc(C2CC2)cnc1N1CCN(C(=O)c2ccc(CN3CCCS3(=O)=O)cc2)CC1` [Example 245, [4-(5-cyclopropyl-3-methylpyridin-2-yl)piperazin-1-yl][4-(1,1-dioxo-1λ^6-isothiazolidin-2-ylmethyl)phenyl]methanone], the IC50 in assay [1] is 0.073 µM. On the same count and under the same terms, the figure for `Cc1cc(C2CC2)cnc1N1CCN(C(=O)c2cnc(N3C(=O)CCC3C)cn2)CC1` (centres unmarked) [Example 687, 1-{5-[4-(5-cyclopropyl-3-methylpyridin-2-yl)piperazine-1-carbonyl]pyrazin-2-yl}-5-methylpyrrolidin-2-one] is 0.041 µM; for `Cc1cnc(N2CCN(C(=O)c3ccc(N4CCCC4=O)cc3F)CC2)c(C)c1` [Example 282, 1-{4-[4-(3,5-dimethylpyridin-2-yl)piperazine-1-carbonyl]-3-fluorophenyl}pyrrolidin-2-one] it is 0.076 µM; for `Cc1cnc(N2CCN(C(=O)c3ccc(N(C)S(C)(=O)=O)cc3F)CC2)c(C)c1` [Example 494, N-{4-[4-(3,5-dimethylpyridin-2-yl)piperazine-1-carbonyl]-3-fluorophenyl}-N-methylmethanesulfonamide] it is 0.102 µM. As to `CC(=O)Nc1ccc(C(=O)N2CCN(c3ccc(C)cc3C)CC2)c(S(C)(=O)=O)c1` [Example 474, N-{4-[4-(2,4-dimethylphenyl)piperazine-1-carbonyl]-3-methanesulfonylphenyl}acetamide], in assay [1], the IC50 was 0.036 µM.
